Laboratory results: patent publication US10919894B2, “Adenine derivatives which are useful in the treatment of allergic diseases or other inflammatory conditions” (GlaxoSmithKline Biologicals SA, priority 2014, dated 2021)

Experiments:
[1] = test system: hPBMCs; assay: TNFα induction in hPBMCs; assay type: cell-based, human; settings: 24 hours stimulation
Procedure: (§1) Compounds were dissolved in 2% glycerol in water to working concentrations starting at 10 μM, serially diluted to 0.00013 μM with 5-fold dilutions. This compound preparation was added to 96-well flat bottom plates at a volume of 10 μl.
(§2) An additional 10 μl of media was added to these wells, or another compound preparation if co-stimulation was intended.
Blood samples from human donors were collected into heparinized 60 cc syringes, and divided into 20 ml aliquots in 50 ml conical culture tubes. The whole blood aliquots were then diluted with 15 ml of PBS, and then underlay with 15 ml HISTOPAQUE™. The samples were centrifuged at 800 g for 30 min with no brake and the buffy coat interface carefully removed. The collected cells were centrifuged at 1500 rpm for 5 minutes and the pellet resuspended in 10 ml of PBS. […] After the final wash, the combined cells were brought up in 20 ml complete media (RPMI 1640 supplemented with 10% v/v heat-inactivated Fetal Bovine Serum (FBS), 100 U/ml penicillin G, 100 μg/ml streptomycin, 10 mM L-glutamine), counted using a Countess automated cell counter (Invitrogen, Life Technologies) and diluted to give a final concentration of 2.8×10^6/ml. […]
The induction of cytokines in human peripheral blood mononuclear cells (hPBMCs) after 24 hours stimulation with oxoadenines 3e-g was next evaluated using cytokine ELISA and intracellular cytokine staining (ICS). […]

[2] = test system: PBMC/Monocytes; assay: Inflammatory cytokine induction in PBMC/Monocytes; assay type: cell-based, human; set-up: key: * through ****; lowest to highest cytokine induction level; * through ****; lowest to highest cytokine induction level; * through ****; lowest to highest cytokine induction level; * through ****; lowest to highest cytokine induction level
Procedure: as §1
Blood samples from human donors were collected into heparinized 60 cc syringes, and divided into 20 ml aliquots in 50 ml conical culture tubes. The whole blood aliquots were then diluted with 15 ml of PBS, and then underlay with 15 ml HISTOPAQUE™. The samples were centrifuged at 800 g for 30 min with no brake and the buffy coat interface carefully removed. The collected cells were centrifuged at 1500 rpm for 5 minutes and the pellet resuspended in 10 ml of PBS. The cells were pooled and further washed twice in PBS to remove all HISTOPAQUE™ from the samples. After the final wash, the combined cells were brought up in 20 ml complete media (RPMI 1640 supplemented with 10% v/v heat-inactivated Fetal Bovine Serum (FBS), 100 U/ml penicillin G, 100 μg/ml streptomycin, 10 mM L-glutamine), counted using a Countess automated cell counter (Invitrogen, Life Technologies) and diluted to give a final concentration of 2.8×10^6/ml. This cell suspension was added to the culture plate containing the compound preparations (see above), at a volume of 180 μl, resulting in a total well volume of 200 µl. […]

[3] = test system: pDC and mDC in hPBMCs; assay: Activation induced apoptosis by Annexin-V staining in pDC and mDC of stimulated hPBMCs; assay type: cell-based, human; settings: hPBMCs stimulated with various doses
Excerpt: This observed cell type specific apoptosis correlated with the dose-dependent IFNα and TNFα induction curves.

[4] = target: T1, hTLR7 (Homo sapiens, UniProt Q9NYK1); assay: NF-κB SEAP reporter gene assay in HEK293 cells stably transfected with hTLR7; assay type: cell-based; settings: for EC50: HEK 293, 24 h stimulation, NF-κB SEAP, read-out: TLR7 ED50; for higher TLR7 potency in relation to oxoadenine 3b: HEK293-hTLR7, FIG. 4A
T1 construct: host or cells: HEK293 cells stably transfected with hTLR7 and NF-κB SEAP reporter
T1 sequence (Q9NYK1 27-1049): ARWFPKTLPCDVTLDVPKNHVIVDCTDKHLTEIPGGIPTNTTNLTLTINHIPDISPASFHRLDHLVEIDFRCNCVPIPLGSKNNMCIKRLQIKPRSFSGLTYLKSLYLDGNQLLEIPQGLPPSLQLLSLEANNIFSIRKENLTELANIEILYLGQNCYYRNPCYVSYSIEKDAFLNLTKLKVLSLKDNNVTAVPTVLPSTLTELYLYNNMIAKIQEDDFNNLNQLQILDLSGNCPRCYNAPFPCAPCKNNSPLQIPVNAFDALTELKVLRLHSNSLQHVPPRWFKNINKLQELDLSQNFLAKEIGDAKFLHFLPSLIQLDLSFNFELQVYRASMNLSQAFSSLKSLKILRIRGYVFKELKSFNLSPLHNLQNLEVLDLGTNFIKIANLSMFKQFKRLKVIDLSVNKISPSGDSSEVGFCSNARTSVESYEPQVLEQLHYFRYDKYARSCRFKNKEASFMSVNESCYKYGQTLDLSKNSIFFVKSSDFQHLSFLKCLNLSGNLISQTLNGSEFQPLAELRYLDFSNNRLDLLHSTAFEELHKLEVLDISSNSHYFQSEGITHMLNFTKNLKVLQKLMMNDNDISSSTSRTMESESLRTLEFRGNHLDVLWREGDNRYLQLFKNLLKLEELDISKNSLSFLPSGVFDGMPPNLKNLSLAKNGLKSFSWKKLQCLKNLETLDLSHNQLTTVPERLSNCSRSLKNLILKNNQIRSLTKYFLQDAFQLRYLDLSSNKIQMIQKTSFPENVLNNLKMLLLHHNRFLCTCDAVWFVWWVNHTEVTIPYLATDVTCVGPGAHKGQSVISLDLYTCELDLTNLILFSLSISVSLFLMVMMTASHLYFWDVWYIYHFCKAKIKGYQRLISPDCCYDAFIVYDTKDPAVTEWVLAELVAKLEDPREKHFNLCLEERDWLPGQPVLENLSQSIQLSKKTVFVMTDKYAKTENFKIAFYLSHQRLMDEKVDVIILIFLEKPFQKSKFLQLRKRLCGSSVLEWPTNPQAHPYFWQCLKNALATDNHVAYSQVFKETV
Procedure: The human (h) TLR7/8 activity of oxoadenines 3a-g was assessed by a reporter gene assay using HEK293 cells stably transfected with either hTLR7 or hTLR8, and with the NF-κB SEAP (secreted embryonic alkaline phosphatase) reporter.
HEK293 cells expressing human TLR7 or TLR8, and NF-κB responsive SEAP reporter gene, were obtained from InvivoGen (San Diego, Calif.). These cells were maintained in culture media of Dulbecco's Modified Eagle Medium (DMEM)
(Invitrogen, Grand Island, N.Y.), 10% Fetal Bovine Serum (FBS) (Sigma, St. Louis, Mo.) and selection antibiotics (Invitrogen and InvivoGen). The stably transfected HEK293 cells were plated in 96-well flat bottom culture plates at 1^E5/well and stimulated for 24 h with a dose range of aqueous formulations of compounds starting at 200 μM, serially diluted to 0.012 μM with 2-fold dilutions (unless formulation conditions warranted lower starting concentrations). Culture supernatants were harvested and assayed for NFKB activation using the colorimetric SEAP detection kit QU ANTI-BLUE (a trademark of InvivoGen).
The assay measured NFKB mediated SEAP production following TLR7 or TLR8 specific activation.
It should be noted that the HEK assay is not optimal for evaluating TLR7 since TLR7 signals via both the NFKB (leading to induction of inflammatory cytokines) and IRF7 pathways (leading to IFN induction) and the HEK system only measures the NFKB side of TLR7 signaling. Oxoadenine 3a was not active on hTLR7 or hTLR8 but the other oxoadenines 3b-g were all active.

[5] = test system: hPBMCs; assay: IFNα induction in hPBMCs; assay type: cell-based; settings: human PBMCs, FIG. 6
Procedure: as §1, §2
Blood samples from human donors were collected into heparinized 60 cc syringes, and divided into 20 ml aliquots in 50 ml conical culture tubes. The whole blood aliquots were then diluted with 15 ml of PBS, and then underlay with 15 ml HISTOPAQUE™. The samples were centrifuged at 800 g for 30 min with no brake and the buffy coat interface carefully removed. The collected cells were centrifuged at 1500 rpm for 5 minutes and the pellet resuspended in 10 ml of PBS. The cells were pooled and further washed twice in PBS to remove all HISTOPAQUE™ from the samples. After the final wash, the combined cells were brought up in 20 ml complete media (RPMI 1640 supplemented with 10% v/v heat-inactivated Fetal Bovine Serum (FBS), 100 U/ml penicillin G, 100 μg/ml streptomycin, 10 mM L-glutamine), counted using a Countess automated cell counter (Invitrogen, Life Technologies) and diluted to give a final concentration of 2.8×10^6/ml. […]
The induction of IFNα from hPBMCs upon stimulation with oxoadenines 3a-g was also evaluated. […]

[6] = test system: human PBMCs; assay: IL-12p70 induction in human PBMCs in combination with CRX601 (TLR4 agonist); assay type: cell-based; set-up: key to IL-12p70 w/601: * through ****; lowest to highest cytokine induction level; * through ****; lowest to highest cytokine induction level; * through ****; lowest to highest cytokine induction level; * through ****; lowest to highest cytokine induction level; settings: for IL-12p70 w/601: PBMC/Monocytes, in combination with CRX601; for synergy with CRX601 for IL12-p70: human PBMCs, FIGS. 8A and 8B
Procedure: as §2
Blood samples from human donors were collected into heparinized 60 cc syringes, and divided into 20 ml aliquots in 50 ml conical culture tubes. The whole blood aliquots were then diluted with 15 ml of PBS, and then underlay with 15 ml HISTOPAQUE™. The samples were centrifuged at 800 g for 30 min with no brake and the buffy coat interface carefully removed. The collected cells were centrifuged at 1500 rpm for 5 minutes and the pellet resuspended in 10 ml of PBS. The cells were pooled and further washed twice in PBS to remove all HISTOPAQUE™ from the samples. After the final wash, the combined cells were brought up in 20 ml complete media (RPMI 1640 supplemented with 10% v/v heat-inactivated Fetal Bovine Serum (FBS), 100 U/ml penicillin G, 100 μg/ml streptomycin, 10 mM L-glutamine), counted using a Countess automated cell counter (Invitrogen, Life Technologies) and diluted to give a final concentration of 2.8×10^6/ml. This cell suspension was added to the culture plate containing the compound preparations (see above), at a volume of 180 μl, resulting in a total well volume of 200 µl.
After 24 hr incubation (37° C., 95% air, 5% CO2), the supernatants were carefully removed and assayed for cytokine/chemokine induction using multiplex kits (FLUOROKINE™ multiplex kits from R&D Systems [bio-techne], Minneapolis, Minn.) and human IFNa VERIKINE™ ELISA kit (Pestka Biomedical Laboratories, Inc., Piscataway, N.J.).
As previously observed with other oxoadenines (see WO2010/018134), synergy with AGP CRX601 for IL12-p70 was relatively low compared to imidazoquinoline compound CRX642 (see WO2010/048520; PCT/US2009/061867; U.S. Pat. No. 8,624,029) in combination with CRX601.

SMILES	TNFα induction in hPBMCs (in words) [1]	Infl. Cytok. [2]	Annexin-V staining in mDC ([3]; mDC)	Annexin-V staining in pDC ([3]; pDC)	EC50 [4]	higher TLR7 potency in relation to oxoadenine 3b [4]	dose at which IFN-alpha is induced [5]	IL-12p70 w/601 [6]	synergy with CRX601 for IL12-p70 [6]
CCCCOc1nc(N)c2[nH]c(=O)n(CCCCCC3CCNCC3)c2n1 [Compound 3f]	high potency	***	not in mDC	dose dependent increase in Annexin-V staining	0.026 µM	50 fold	~1 nM	**	demonstrated synergy with CRX601 throughout a wide dose range
CCC[C@H](C)Oc1nc(N)c2nc(O)n(CCCCCC3CCNCC3)c2n1 [Compound 3x]	high potency	–	–	–	0.006 µM	100 fold	~1 nM	**	demonstrated synergy with CRX601 throughout a wide dose range
